Measurements from patent publication US8058243B2, “Method for treating a brain cancer with ifenprodil” (HSC Research and Development Limited Partnership, priority 2006, dated 2011).
Structures can show the parent of a compound that is named as a salt. Where two headings read alike, the source gives them in different places.

System: murine neural precursor cells (neurosphere cultures)
Assay: HTS of LOPAC library against secondary neurosphere cultures, MTT proliferation assay at 3 μM, day 7 (z score, P value)
Assay type: cell-based, mouse
[1] = LOPAC primary screen, neurosphere MTT proliferation, 3 μM, day 7
[2] = yes/no: significantly inhibited neurosphere proliferation (P<0.01) in the primary screen
[3] = LOPAC screen, neurosphere MTT proliferation, 3 μM, day 7
[4] = yes/no: significantly inhibited neurosphere proliferation (P<0.01) in primary screen
[5] = LOPAC library screen, 3 μM, MTT, neurosphere cultures
[6] = yes/no: significantly inhibited neurosphere proliferation in primary screen
[7] = primary LOPAC screen, 3 μM, MTT, neurosphere proliferation
[8] = yes/no: significantly inhibited neurosphere proliferation in the primary screen
[9] = LOPAC library screen, 3 μM, MTT, secondary neurosphere cultures, day 7
[10] = yes = significantly inhibited neurosphere proliferation (P<0.01) in the primary screen
[11] = LOPAC library screen at 3 μM, secondary neurosphere cultures, MTT

In the case of C[N+](C)(C)CCCCCC[N+](C)(C)C [Hexamethonium bromide], the “Z Score” value is reported as −0.8199, the Z score [1] is reported as −0.820 and the Activity [2] is reported as “no”.
For CCCCOc1cc(CC2CNC(=O)N2)ccc1OC (racemic) [Ro 20-1724], the “Z Score” value was 0.5874, the Z score [3] was 0.587 and the Activity [4] was “no”.
For CN(C)C(N)=NCCC[C@H](N)C(=O)O.Cl, the “Z Score” value was −1.373.
In the case of C[N+]1(CCCCC[N+]2(C)CCCC2)CCCC1.O=C([O-])C(O)C(O)C(=O)O.O=C([O-])C(O)C(O)C(=O)O [Pentolinium di[L(+)-tartrate]], the “Z Score” value [5] is reported as 0.1662, the Z score [1] is reported as 0.166 and the Activity [6] is reported as “no”.
In the case of NC(CCCP(=O)(O)O)C(=O)O (stereo not drawn) [(B1)-2-Amino-5-phosphonopentanoic acid], the “Z Score” value is reported as −1.045.
For Cc1ccc(S(=O)(=O)NC(=O)NN2CCCCCC2)cc1 [Tolazamide], the “Z Score” value [5] was 1.431, the Z score [7] was 1.431 and the Activity [8] was “no”.
For CC(C)NC(C)Cc1ccc(I)cc1 (stereo not drawn) [Iofetamine hydrochloride], the “Z Score” value was −0.7588 and the Z score [1] was −0.759.
For CC(C)(C=O)Cc1cc(C(C)(C)C)c(O)c(C(C)(C)C)c1 [CGP-13501], the “Z Score” value was −1.096, the Z score [7] was −1.096 and the Activity [8] was “no”.
In the case of CN1CCN(C2Cc3ccccc3Sc3ccc(Cl)cc32)CC1.O=C(O)/C=C\C(=O)O (racemic) [(±)-Octoclothepin maleate], the Z score [1] is reported as 1.473 and the Activity [2] is reported as “no”.
With CCn1c(=O)c2[nH]c(-c3ccccc3)nc2n(CC)c1=O [1,3-Diethyl-8-phenylxanthine] the “Z Score” value (168 h, 3 µM) was 2.005, the Z score (168 h, 3 µM) was 2.005 and the Activity [8] was “no”.
For CCCn1c(=O)c2[nH]c(-c3ccc(S(=O)(=O)O)cc3)nc2n(CCC)c1=O [1,3-Dipropyl-8-p-sulfophenylxanthine], the “Z Score” value was 4.743, the Z score was 4.743 and the Activity [8] was “no”.
For CC(=O)N1CCN(c2ccc(OCC3COC(Cn4ccnc4)(c4ccc(Cl)cc4Cl)O3)cc2)CC1 (stereo not drawn) [Ketoconazole], the Activity was “no”, the “Z Score” value (168 h, 3 µM) was 0.586 and the Z score (168 h, 3 µM) was 0.586.
With CC(C)NCC(O)c1ccc(NS(C)(=O)=O)cc1.Cl (racemic) [(±)-Sotalol hydrochloride] the Z score [1] was −0.813 and the Activity [6] was “no”.
With O=C[C@H](Cl)[C@@H](O)[C@H](O)[C@H](O)CO [2-Chloro-2-deoxy-D-glucose] the “Z Score” value [9] was −2.364, the Z score [1] was −2.364 and the Activity [10] was “yes”.
For CCCCNc1cc(C(=O)O)cc(S(N)(=O)=O)c1Oc1ccccc1 [Bumetanide], the “Z Score” value [9] was −2.182, the Z score [3] was −2.182 and the Activity [4] was “no”.
O=C(Nc1ccccc1)c1cc([N+](=O)[O-])ccc1Cl [GW9662] was tested, and the “Z Score” value was 1.475, the Z score [1] was 1.475 and the Activity [10] was “no”.
CC(C)[C@@]1(NC(=O)[C@@H]2C=C3c4cccc5[nH]cc(c45)C[C@H]3N(C)C2)O[C@@]2(O)[C@@H]3CCCN3C(=O)[C@H](Cc3ccccc3)N2C1=O [Ergocristine] was tested, and the “Z Score” value was 0.4078, the Z score [1] was 0.408 and the Activity [4] was “no”.
COc1cc(NS(C)(=O)=O)ccc1Nc1c2ccccc2nc2ccccc12 [Amsacrine hydrochloride] was tested, and the “Z Score” value [9] was −11.27, the Z score [1] was −11.274 and the Activity [10] was “yes”.
CN1C[C@H](O)[C@@H](O)[C@H](O)[C@H]1CO [N-Methyl-1-deoxynojirimycin] was tested, and the “Z Score” value was −1.335, the Z score [1] was −1.335 and the Activity [10] was “no”.
CCN1C(=O)C=CC1=O [N-Ethylmaleimide] was tested, and the “Z Score” value was −0.02816, the Z score [1] was −0.028 and the Activity [4] was “no”.
For CCCN1CCC[C@@H]2Cc3nc(N)ncc3C[C@H]21.Cl.Cl [Quinelorane dihydroechloride], the “Z Score” value was −1.567.
With C[N+](C)(C)CC#CCOC(=O)Nc1cccc(Cl)c1.[Cl-] [McN-A-343] the “Z Score” value was −0.08897, the Z score [3] was −0.089 and the Activity [4] was “no”.
With O=C(O)c1cc(=O)c2ccccc2[nH]1 [Kynurenic acid] the “Z Score” value [5] was 0.7018, the Z score [1] was 0.702 and the Activity [4] was “no”.
For Cc1nc2sccn2c(=O)c1CCN1CCC(=C(c2ccccc2)c2ccc(F)cc2)CC1 [Diacylglycerol kinase inhibitor I], the “Z Score” value was −1.782, the Z score [3] was −1.782 and the Activity [4] was “no”.
CN(C)c1cc2c(Nc3ccc4c(cnn4Cc4ccccc4)c3)ncnc2cn1 [GW2974] was tested, and the “Z Score” value was −0.5164, the Z score [1] was −0.516 and the Activity [4] was “no”.
Cl.NC[C@@H]1O[C@H](C23CC4CC(CC(C4)C2)C3)Cc2c1ccc(O)c2O [A-77636 hydrochloride] was tested, and the “Z Score” value was 1.44, the Z score [7] was 1.440 and the Activity [8] was “no”.
With O=C(c1cc(O)c(O)c([N+](=O)[O-])c1)c1ccccc1F [Ro 41-0960] the “Z Score” value was −0.36, the Z score [1] was −0.360 and the Activity [6] was “no”.
In the case of Clc1cnc(Oc2ccc(Oc3ncc(Cl)cc3Cl)cc2)c(Cl)c1 [TCPOBOP], the “Z Score” value [9] is reported as −2.008, the Z score [1] is reported as −2.008 and the Activity [10] is reported as “no”.
In the case of CO/N=C(\C(=O)N[C@@H]1C(=O)N2C(C(=O)O)=C(COC(C)=O)CS[C@H]12)c1csc(N)n1 [Cefotaxime sodium], the “Z Score” value [11] is reported as −1.096, the Z score [1] is reported as −1.096 and the Activity [2] is reported as “no”.
In the case of O=Nc1ccc2oc(=O)ccc2c1 [6-Nitroso-1,2-benzopyrone], the Z score [1] is reported as 0.011 and the Activity [10] is reported as “no”.
For CC(C)(C)c1cc(C=C(C#N)C#N)cc(C(C)(C)C)c1O [Tyrphostin A9], the “Z Score” value [9] was −1.746, the Z score [7] was −1.746 and the Activity [8] was “no”.
CCN(CC)CCNC(=O)c1cc(S(C)(=O)=O)ccc1OC [Tiapride hydrochloride] was tested, and the “Z Score” value [5] was 0.6889, the Z score [1] was 0.689 and the Activity [2] was “no”.
With N[C@@H](Cn1oc(=O)[nH]c1=O)C(=O)O [(+)-Quisqualic acid] the “Z Score” value was 0.4361, the Z score [1] was 0.436 and the Activity [6] was “no”.
With N[C@@H](CC(=O)O)C(=O)O [L-Aspartic acid] the Activity was “no”, the “Z Score” value (168 h, 3 µM) was 0.1632 and the Z score (168 h, 3 µM) was 0.163.
For Fc1ccc(C(c2ccc(F)cc2)N2CCN(C/C=C/c3ccccc3)CC2)cc1 [Flunarizine dihydrochloride], the “Z Score” value [5] was 0.3954, the Z score [1] was 0.395 and the Activity [4] was “no”.
With CCCCc1ccc(C(=O)O)nc1 [Fusaric acid] the “Z Score” value was −0.1413 and the Z score [1] was −0.141.
For CN(C)CCCN1c2ccccc2CCc2ccc(Cl)cc21 [Clomipramine hydrochloride], the Activity was “no”, the “Z Score” value [11] was −0.8439 and the Z score [1] was −0.844.
Cl.Cl.NCCc1c[nH]cn1 [Histamine dihydrochloride] was tested, and the Activity was “no”, the “Z Score” value was −1.476 and the Z score was −1.476.
In the case of NC(CCP(=O)(O)O)C(=O)O (racemic) [(±)-2-Amino-4-phosphonobutyric acid], the Z score [7] is reported as 1.893 and the Activity [8] is reported as “no”.
For NC1C=CC=C(C(=O)O)C1 (racemic) [Gabaculine hydrochloride], the “Z Score” value was −2.256, the Z score [7] was −2.256 and the Activity [8] was “no”.
With O=C1NC(=O)C(c2ccccc2[N+](=O)[O-])=C1Nc1ccc(O)c(Cl)c1 [SB 415286] the “Z Score” value was −2.87 and the Z score [1] was −2.870.
With Br.Br.N=C(N)SCCc1ccc(CCSC(=N)N)cc1 [1,4-PBIT dihydrobromide] the “Z Score” value was −1.179, the Z score [1] was −1.179 and the Activity [6] was “no”.
In the case of COc1ccc2c(c1)c(CC(=O)O)c(C)n2Cc1ccc(Cl)cc1 [1-(4-Chlorobenzyl)-5-methoxy-2-methylindole-3-acetic acid], the “Z Score” value [9] is reported as −1.584, the Z score [7] is reported as −1.584 and the Activity [8] is reported as “no”.
With Cl.O=C(Cc1ccc(Cl)c(Cl)c1)N1CCCCC1CN1CCCC1 (stereo not drawn) [BRL 52537 hydrochloride] the “Z Score” value was −2.761, the Z score [1] was −2.761 and the Activity [2] was “yes”.
For CNC(=O)[C@H]1O[C@@H](n2cnc3c(NCc4cccc(I)c4)nc(Cl)nc32)[C@H](O)[C@@H]1O [Chloro-IB-MECA], the “Z Score” value [11] was −0.8471, the Z score [3] was −0.847 and the Activity [4] was “no”.
Cl.Cl.Cl.NCCCCNCCCN [Spermidine trihydrochloride] was tested, and the “Z Score” value [5] was 1.259, the Z score [1] was 1.259 and the Activity [6] was “no”.
O=C1NCN(c2ccccc2)C12CCN(CC1COc3ccccc3O1)CC2 (stereo not drawn) [Spiroxatrine] was tested, and the “Z Score” value [5] was 0.1219, the Z score [1] was 0.122 and the Activity [6] was “no”.
CC(N/C(=N\C#N)Nc1ccncc1)C(C)(C)C (stereo not drawn) [Pinacidil] was tested, and the “Z Score” value [9] was −2.117, the Z score [1] was −2.117 and the Activity [6] was “no”.
For 5-Bromo-2$$-deoxyuridine, the “Z Score” value was 2.58.
In the case of COc1ccc2[nH]c3c(c2c1)CCNC3, the “Z Score” value is reported as −2.661.
In the case of CN1[C@@H](CC(=O)c2ccccc2)CCC[C@H]1C[C@H](O)c1ccccc1 [alpha-Lobeline hydrochloride], the “Z Score” value [5] is reported as 0.5499, the Z score [1] is reported as 0.550 and the Activity [4] is reported as “no”.
For CC(C)Oc1cccnc1N(C)C1CCN(Cc2ccccc2)CC1.O=C(O)/C=C\C(=O)O [U-101958 maleate], the “Z Score” value was −2.065, the Z score [7] was −2.065 and the Activity [8] was “no”.
In the case of O=C(O)[C@H]1C[C@H](C(=O)O)N1 (relative stereo) [trans-Azetidine-2,4-dicarboxylic acid], the “Z Score” value (168 h, 3 µM) is reported as −0.3491, the Z score (168 h, 3 µM) is reported as −0.349 and the Activity [8] is reported as “no”.
In the case of COc1ccc2c3c1O[C@H]1C(=O)CC[C@@]4(O)[C@@H](C2)N(CC2CC2)CC[C@]314.Cl [(−)-3-Methoxynaltrexone hydrochloride], the “Z Score” value is reported as 0.5963, the Z score [1] is reported as 0.596 and the Activity [2] is reported as “no”.
In the case of Oc1cc(O)cc(/C=C/c2ccc(O)c(O)c2)c1 [Piceatannol], the “Z Score” value (168 h, 3 µM) is reported as 0.5958 and the Z score (168 h, 3 µM) is reported as 0.596.
